Test results from BindingDB's records for doi:10.1021/jm00001a002 (National Institutes of Health, 1995).

Biological target: Sigma non-opioid intracellular receptor 1 (Cavia porcellus) (UniProt Q60492)
Test: In vitro binding affinity towards Sigma receptor type 1 was determined by measuring its ability to displace [3H](+)-pentazocine from guinea pig brain membrane

Sigma non-opioid intracellular receptor 1 (Cavia porcellus), sequence (Q60492 whole entry, looked up): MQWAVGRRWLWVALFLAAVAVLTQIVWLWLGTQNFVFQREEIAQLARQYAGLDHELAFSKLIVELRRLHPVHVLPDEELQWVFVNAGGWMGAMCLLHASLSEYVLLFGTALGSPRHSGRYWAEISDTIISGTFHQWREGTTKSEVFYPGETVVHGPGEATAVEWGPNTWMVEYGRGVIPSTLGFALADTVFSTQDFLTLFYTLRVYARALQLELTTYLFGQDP

Row | Ki [nM] | Structure (SMILES)
1 | 21.7 | CN1CCC=C(c2nsnc2SCCF)C1
2 | 62.1 | CN1CCC=C(c2nsnc2SCCCF)C1
